Laboratory results as given in paper PMC6514996, “Discovery of Potent and Selective Halogen-Substituted Imidazole-Thiosemicarbazides for Inhibition of Toxoplasma gondii Growth In Vitro via Structure-Based Design” (Molecules, 2019).
Values after ≈ are worked out from the molar mass of the structure shown. Each block holds one molecule with its values, some of them ahead of it.

Experiments:
[1] = Lipophilicity by HPLC (logkw extrapolation, OECD guideline); type: physicochemical; details: Phenomenex Synergi 4 µm Polar-RP column, methanol:water, calibration with seven standards
Experimental: HPLC experiments were performed using a chromatograph equipped with an Elite LaChrom L-2130 gradient pump, L-2455 DAD detector, L-2300 column oven, and L-2200 autosampler (Hitachi-Merck, Darmstadt, Germany). The tested samples were applied into the Phenomenex Synergi 4 µm Polar-RP chromatographic column (Phenomenex, Torrance, CA, USA) (150 mm length, 4.6 mm i.d.). Mobile phases were degassed using a built-in membrane degasser.
Chromatographic analysis: 5 µL of each sample (0.1% methanolic solutions) was applied into the chromatographic column and chromatograms were developed at a flow rate of 1.0 mL min^−1 in the isocratic mode using various concentrations of methanol in the binary polar mobile phase: methanol:water (40:60, 45:55, 50:50, 55:45, 60:40, 65:35, and 70:30 (v/v)) Chromatograms were detected at 254 nm. All experiments were repeated in triplicate, and the final results were their arithmetic mean. Dead time was measured for uracil (Calbiochem—Merck, Darmstadt, Germany). All the experiments were performed at ambient temperature.
The chromatographic lipophilicity parameter (logkw) for 5–16 was obtained by the extrapolation of the retention parameter logk to pure water, according to the equation: logk = logkw − S × φ(1) where logkw is the value of the retention factor of a substance in pure water, S is the slope of the regression curve, and φ is the concentration (v/v) of methanol in the mobile phase.
Subsequently, logPHPLC parameters for 5–16 were calculated according to OECD guidelines, based on the equation obtained for seven standards with known lipohilicity parameters (logPo/w): logPo/w = 1.0239(± 0.03)·logkw − 0.1541(± 0.08); n = 7; r = 0.9976; se = 0.08; F = 1047.8(2)

[2] = Cytotoxicity against L929 cells, MTT cell viability assay (ISO 10993-5:2009(E)); type: cell-based; details: mouse, L929 mouse fibroblast cells; for viability at 24 h, 5 µg/mL / viability at 24 h, 25 µg/mL / viability at 24 h, 50 µg/mL / viability at 24 h, 125 µg/mL / viability at 24 h, 250 µg/mL / viability at 24 h, 500 µg/mL / viability at 24 h, 1000 µg/mL: read-out: viability of L929 cells (% of viable cells); for CC50 at 24 h: 50% cell proliferation inhibition, L929 cells
Description: Since T. gondii is an obligate intracellular parasite that requires invasion of mammalian host cells to proliferate, compounds that inhibit parasite growth might be toxic to host cells as well. Therefore, as an initial indicator for host cell toxicity, we firstly evaluated compounds 5–16 for their ability to inhibit the growth of mouse fibroblast (L929) cells line according to the international standards: ISO 10993-5:2009(E).
To calculate the reduction of viability compared to the untreated blank the equation was used: viability (%) = 100% × sample OD570 (the mean value of the measured optical density of the treated cells)/blank OD570 (the mean value of the measured optical density of the untreated cells). CC50—represents the concentration of tested compounds that was required for a 50% cell proliferation inhibition in vitro. The effect of the tested compounds on the cell lines was measured using MTT assay according to the international standard: ISO 10993-5:2009(E). CC50 values were determined based on the plotted curves using GraphPad Prism program (version 8.0.1).
Cell culture: the L929 mouse fibroblast (ATTC® CCL-1™) was routinely cultured in IMDM (Iscove’s Modified Dulbecco Medium, Biowest, Nuaille, France), supplemented with 10% HIFBS, 100 U/mL penicillin and 100 μg/mL streptomycin. Cells were trypsinized twice a week and seeded at a density of 1 × 10^6 per T25 cell culture flask and incubated for 24–48 h in a 37 °C and 10% CO2 to achieve a confluent monolayer.
Cell viability assay: Assays were performed according to international standards: ISO 10993-5:2009(E), Biological evaluation of medical devices, Part 5: Tests for in vitro cytotoxicity. Cell viability were evaluated using the tetrazolium salt [3-(4,5-dimethylthiazol-2-yl)-2,5-diphenyltetrazolium bromide] (Sigma) and mouse fibroblasts L929 cells. For this assay we used only the culture medium, RPMI 1640, without phenol red (Biowest) supplemented with 10% HIFBS, 2 mM L-glutamine (Sigma), 100 U/mL penicillin, 100 μg/mL streptomycin. Shortly after, a 1 × 10^4/well of L929 cells were placed into 96-well plates and incubated in 37 °C and 10% CO2. Afterwards, an old culture medium was replaced by 100 μL of compounds and drugs dilutions in culture medium and the cells were treated for 24 h. Moreover, cells were treated with a 4.0–0.03% concentration of DMSO and 1M NaOH as a compound and drugs solvent (data not shown). Then, 50 μL of 1 mg/mL of MTT solution in RPMI 1640 without phenol red was added to each well and incubated 2h (37 °C, 10% CO2). Next, cell culture medium was aspirated cautiously and 150 μL of DMSO was added to each well, the plates were gently mixed. Then 25 μL 0.1M glycine buffer (pH = 10.5) (Sigma) was added. The optical density at 570 nm on the ELISA reader (Multiskan EX, Labsystems, Vienna, VA, USA), was read. The results were expressed as a percentage of viability compared to untreated cells. All experiments were performed in triplicate. For comparison reasons, two compounds known from our previous studies (6 and 9) were included in the bioassay performed for compounds 5, 7, 8, 9–16.

[3] = system: Toxoplasma gondii RH strain tachyzoites (ATCC PRA 310); assay: Influence on T. gondii proliferation in Hs27 cells, [3H]-uracil incorporation assay; type: cell-based; details: for IC50: Toxoplasma gondii, HS27, 50% inhibition of T. gondii RH proliferation in vitro, Hs27 host cells, [3H]-uracil incorporation; for SR (selectivity ratio): ratio of CC50 (L929) to IC50 (T. gondii)

chromatographic logP [1]: 3.23
melting point: 205 to 207 °C
Structure (SMILES): Cc1nc[nH]c1C(=O)NNC(=S)Nc1ccccc1Br [Compound 11, 4-(2-Bromophenyl)-1-(4-methylimidazol-5-oyl)thiosemicarbazide]
viability at 24 h, 5 µg/mL [2]: 94.7%
viability at 24 h, 25 µg/mL [2]: 93%
viability at 24 h, 50 µg/mL [2]: 87.5%
viability at 24 h, 125 µg/mL [2]: 76.3%
viability at 24 h, 250 µg/mL [2]: 70%
viability at 24 h, 500 µg/mL [2]: 47.1%
viability at 24 h, 1000 µg/mL [2]: 29.8%
CC50 at 24 h [2]: 495 µg/mL (≈ 1400 µM)
IC50 [3]: 27.6 µg/mL (≈ 78.1 µM)
SR (selectivity ratio) [3]: 17.91

chromatographic logP [1]: 3.98
melting point: 210 to 212 °C
Structure (SMILES): Cc1nc[nH]c1C(=O)NNC(=S)Nc1cccc(I)c1 [Compound 15, 4-(3-Iodophenyl)-1-(4-methylimidazol-5-oyl)thiosemicarbazide]
viability at 24 h, 5 µg/mL [2]: 96.7%
viability at 24 h, 25 µg/mL [2]: 87.3%
viability at 24 h, 50 µg/mL [2]: 70.8%
viability at 24 h, 125 µg/mL [2]: 66.2%
viability at 24 h, 250 µg/mL [2]: 54%
viability at 24 h, 500 µg/mL [2]: 8.53%
viability at 24 h, 1000 µg/mL [2]: 8.49%
CC50 at 24 h [2]: 197 µg/mL (≈ 492 µM)
IC50 [3]: 10.3 µg/mL (≈ 25.7 µM)
SR (selectivity ratio) [3]: 19.16

chromatographic logP [1]: 3.95
melting point: 225 to 227 °C
Structure (SMILES): Cc1nc[nH]c1C(=O)NNC(=S)Nc1ccc(I)cc1 [Compound 16, 4-(4-Iodophenyl)-1-(4-methylimidazol-5-oyl)thiosemicarbazide]
viability at 24 h, 5 µg/mL [2]: 96.7%
viability at 24 h, 25 µg/mL [2]: 84.4%
viability at 24 h, 50 µg/mL [2]: 66.2%
viability at 24 h, 125 µg/mL [2]: 68.1%
viability at 24 h, 250 µg/mL [2]: 49.9%
viability at 24 h, 500 µg/mL [2]: 16.3%
viability at 24 h, 1000 µg/mL [2]: 13.5%
CC50 at 24 h [2]: 195 µg/mL (≈ 486 µM)
IC50 [3]: 22 µg/mL (≈ 54.9 µM)
SR (selectivity ratio) [3]: 8.86
